PubChem BioAssay (NCI)
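All cell lines were grown in 96-well plates and treated with compound for 48 hours. TGI denotes the concentration required for complete inhibition of growth.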

How the values were obtained:
Experiment in all cases: growth of human tumour cells (NCI), 48 h
[1] = system: 786-0 renal
[2] = system: A498 renal
[3] = system: A549 NSCLC
[4] = system: ACHN renal
[5] = system: BT-549 breast
[6] = system: CAKI-1 renal
[7] = system: COLO 205 colon
[8] = system: DU-145 prostate
[9] = system: EKVX NSCLC
[10] = system: HCC-2998 colon
[11] = system: HCT-116 colon
[12] = system: HCT-15 colon
[13] = system: HL-60(TB) leukemia
[14] = system: HOP-62 NSCLC
[15] = system: HOP-92 NSCLC
[16] = system: HS 578T breast
[17] = system: HT29 colon
[18] = system: IGROV1 ovarian
[19] = system: K-562 leukemia
[20] = system: KM12 colon
[21] = system: LOX IMVI melanoma
[22] = system: M14 melanoma
[23] = system: MALME-3M melanoma
[24] = system: MCF7 breast
[25] = system: MDA-MB-231 breast
[26] = system: MDA-MB-435
[27] = system: MDA-N
[28] = system: MOLT-4 leukemia
[29] = system: NCI-H226 lung
[30] = system: NCI-H23 lung
[31] = system: NCI-H460 lung
[32] = system: NCI-H522 lung
[33] = system: NCI/ADR-RES ovarian
[34] = system: OVCAR-3 ovarian
[35] = system: OVCAR-4 ovarian
[36] = system: OVCAR-5 ovarian
[37] = system: OVCAR-8 ovarian
[38] = system: PC-3 prostate
[39] = system: RPMI-8226 leukemia
[40] = system: RXF 393 renal
[41] = system: SF-268 CNS
[42] = system: SF-295 CNS
[43] = system: SK-MEL-2 melanoma
[44] = system: SK-MEL-28 melanoma
[45] = system: SK-MEL-5 melanoma
[46] = system: SK-OV-3 ovarian
[47] = system: SN12C renal
[48] = system: SNB-19 CNS
[49] = system: SNB-75 CNS
[50] = system: SW-620 colon
[51] = system: T-47D breast
[52] = system: TK-10 renal
[53] = system: U251 CNS
[54] = system: UACC-257 melanoma
[55] = system: UACC-62 melanoma
[56] = system: UO-31 renal
[57] = system: CCRF-CEM leukemia
[58] = system: SR leukemia
[59] = system: SF-539 CNS

## CC1OC(O[C@H]2C3C=CO[C@@H](OC4OC(CO)C(O)C(O)C4O)C3[C@@]3(COC(=O)/C=C/c4ccc(O)cc4)O[C@@H]23)C(O)C(O)C1O (some centres undefined)
[1]
  TGI: > 100 µM
[2]
  TGI: > 100 µM
[3]
  TGI: > 100 µM
[4]
  TGI: > 100 µM
[5]
  TGI: > 100 µM
[6]
  TGI: > 100 µM
[7]
  TGI: > 100 µM
[8]
  TGI: > 100 µM
[9]
  TGI: > 100 µM
[10]
  TGI: > 100 µM
[11]
  TGI: > 100 µM
[12]
  TGI: > 100 µM
[13]
  TGI: > 100 µM
[14]
  TGI: > 100 µM
[15]
  TGI: > 100 µM
[16]
  TGI: > 100 µM
[17]
  TGI: > 100 µM
[18]
  TGI: > 100 µM
[19]
  TGI: > 100 µM
[20]
  TGI: > 100 µM
[21]
  TGI: > 100 µM
[22]
  TGI: > 100 µM
[23]
  TGI: > 100 µM
[24]
  TGI: > 100 µM
[25]
  TGI: > 100 µM
[26]
  TGI: > 100 µM
[27]
  TGI: > 100 µM
[28]
  TGI: > 100 µM
[29]
  TGI: > 100 µM
[30]
  TGI: > 100 µM
[31]
  TGI: > 100 µM
[32]
  TGI: > 100 µM
[33]
  TGI: > 100 µM
[34]
  TGI: > 100 µM
[35]
  TGI: > 100 µM
[36]
  TGI: > 100 µM
[37]
  TGI: > 100 µM
[38]
  TGI: > 100 µM
[39]
  TGI: > 100 µM
[40]
  TGI: > 100 µM
[41]
  TGI: > 100 µM
[42]
  TGI: > 100 µM
[43]
  TGI: > 100 µM
[44]
  TGI: > 100 µM
[45]
  TGI: > 100 µM
[46]
  TGI: > 100 µM
[47]
  TGI: > 100 µM
[48]
  TGI: > 100 µM
[49]
  TGI: > 100 µM
[50]
  TGI: > 100 µM
[51]
  TGI: > 100 µM
[52]
  TGI: > 100 µM
[53]
  TGI: > 100 µM
[54]
  TGI: > 100 µM
[55]
  TGI: > 100 µM
[56]
  TGI: > 100 µM

## CC(=C(C(N)=O)C(N)=O)C1C=C(c2cccs2)CC(c2ccc(Cl)cc2)=C1O (centres undefined)
[1]
  TGI: > 100 µM
[2]
  TGI: > 100 µM
[3]
  TGI: > 100 µM
[4]
  TGI: > 100 µM
[5]
  TGI: > 100 µM
[6]
  TGI: > 100 µM
[57]
  TGI: 79.4 µM
[7]
  TGI: > 100 µM
[8]
  TGI: > 100 µM
[9]
  TGI: > 100 µM
[10]
  TGI: > 100 µM
[11]
  TGI: > 100 µM
[12]
  TGI: > 100 µM
[13]
  TGI: > 100 µM
[14]
  TGI: > 100 µM
[15]
  TGI: > 100 µM
[16]
  TGI: > 100 µM
[17]
  TGI: > 100 µM
[18]
  TGI: > 100 µM
[19]
  TGI: > 100 µM
[20]
  TGI: > 100 µM
[21]
  TGI: 40.4 µM
[22]
  TGI: > 100 µM
[24]
  TGI: > 100 µM
[25]
  TGI: > 100 µM
[26]
  TGI: > 100 µM
[27]
  TGI: > 100 µM
[28]
  TGI: > 100 µM
[29]
  TGI: > 100 µM
[30]
  TGI: > 100 µM
[31]
  TGI: > 100 µM
[32]
  TGI: > 100 µM
[33]
  TGI: > 100 µM
[34]
  TGI: > 100 µM
[35]
  TGI: 78.8 µM
[36]
  TGI: > 100 µM
[37]
  TGI: > 100 µM
[38]
  TGI: > 100 µM
[39]
  TGI: > 100 µM
[40]
  TGI: > 100 µM
[41]
  TGI: > 100 µM
[42]
  TGI: > 100 µM
[43]
  TGI: > 100 µM
[44]
  TGI: > 100 µM
[45]
  TGI: > 100 µM
[46]
  TGI: > 100 µM
[47]
  TGI: > 100 µM
[48]
  TGI: > 100 µM
[49]
  TGI: > 100 µM
[58]
  TGI: 81.6 µM
[50]
  TGI: > 100 µM
[51]
  TGI: > 100 µM
[52]
  TGI: > 100 µM
[53]
  TGI: > 100 µM
[54]
  TGI: > 100 µM
[55]
  TGI: > 100 µM
[56]
  TGI: > 100 µM

## O=c1oc2cc(O)ccc2c(O)c1C(c1cccnc1)c1c(O)c2ccc(O)cc2oc1=O
[1]
  TGI: > 100 µM
[2]
  TGI: > 100 µM
[3]
  TGI: > 100 µM
[4]
  TGI: > 100 µM
[5]
  TGI: > 100 µM
[6]
  TGI: > 100 µM
[7]
  TGI: > 100 µM
[8]
  TGI: > 100 µM
[9]
  TGI: > 100 µM
[10]
  TGI: > 100 µM
[11]
  TGI: > 100 µM
[12]
  TGI: > 100 µM
[13]
  TGI: > 100 µM
[14]
  TGI: > 100 µM
[15]
  TGI: > 100 µM
[16]
  TGI: > 100 µM
[17]
  TGI: > 100 µM
[18]
  TGI: > 100 µM
[19]
  TGI: > 100 µM
[20]
  TGI: > 100 µM
[21]
  TGI: > 100 µM
[22]
  TGI: > 100 µM
[24]
  TGI: > 100 µM
[25]
  TGI: > 100 µM
[26]
  TGI: > 100 µM
[27]
  TGI: > 100 µM
[28]
  TGI: > 100 µM
[29]
  TGI: > 100 µM
[30]
  TGI: > 100 µM
[31]
  TGI: > 100 µM
[32]
  TGI: > 100 µM
[33]
  TGI: > 100 µM
[34]
  TGI: > 100 µM
[36]
  TGI: > 100 µM
[37]
  TGI: > 100 µM
[38]
  TGI: > 100 µM
[39]
  TGI: > 100 µM
[40]
  TGI: > 100 µM
[41]
  TGI: > 100 µM
[42]
  TGI: > 100 µM
[59]
  TGI: > 100 µM
[43]
  TGI: > 100 µM
[44]
  TGI: > 100 µM
[45]
  TGI: > 100 µM
[46]
  TGI: > 100 µM
[47]
  TGI: > 100 µM
[48]
  TGI: > 100 µM
[49]
  TGI: > 100 µM
[58]
  TGI: > 100 µM
[50]
  TGI: > 100 µM
[51]
  TGI: > 100 µM
[52]
  TGI: > 100 µM
[53]
  TGI: > 100 µM
[54]
  TGI: > 100 µM
[55]
  TGI: > 100 µM
[56]
  TGI: > 100 µM
